Results reported in PubChem BioAssay AID1845194 (Molecular Pharmacology Branch, DTP, NCI, 2023).

Test system: 287954-098-R-J1 tumor spheroid viability
Test: Anticancer human tumor 287954-098-R-J1 patient-derived Ewing sarcoma cell line growth inhibition
Settings: spheroids with HUVEC and MSC; for IC50: curve of first compound; for viability, T/C: stronger effect = lower value
From the text: Multicellular complex tumor spheroid response to DNA repair inhibitors in combination with DNA-damaging drugs
This study explores the anticancer activities of DNA-damaging drugs and inhibitors of DNA damage repair, both as single agents and in combinations. Complex tumor spheroids comprised of malignant cells, endothelial cells and mesenchymal stem cells served as an in vitro model for human solid tumors. This model system incorporates physiologically relevant features and patient-derived or established malignant cell lines with clinically relevant genetic alterations from many tumor types. Twenty-six patient-derived or established malignant cell lines were evaluated representing sarcoma, melanoma, small cell lung cancer (SCLC), non-small cell lung cancer (NSCLC), as well as bladder, ovarian and pancreatic cancers. The concentration ranges selected for each drug and investigational agent were based upon clinically achievable concentrations if the clinical Cmax of the agent was known.
Compounds. The drugs and compounds olaparib (NSC753686), talazoparib (NSC767125), berzosertib (NSC777718), elimusertib (NSC800525), nedisertib (NSC802822), VX-984 (NSC792969), AZD-1390 (NSC803789), temozolomide (NSC362856), topotecan (NSC609699), trabectedin (NSC813783), staurosporine (NSC755774), and gemcitabine (NSC613327) were obtained from the National Cancer Institute (NCI) Developmental Therapeutics Program Chemical Repository. The FDA-approved anticancer drug set is available from the Developmental Therapeutics Program at https://dtp.cancer.gov/organization/dscb/obtaining/available_plates.htm. […] The stock solutions were prepared in dimethyl sulfoxide (DMSO, Sigma-Aldrich, St. Louis, MO, cat. D2650) at 400-fold the tested concentration and stored at -70 degrees C. Prior to their use, the stock solutions were diluted in fresh medium and the final DMSO concentration in the assay was 0.25% (v/v). All drugs and investigational agents were tested over a range starting from a high concentration at or near the clinical Cmax and decreasing in half-log increments. If the clinical Cmax for an agent had not been determined, the highest concentration tested was 10 microM.
Cell Lines. The patient-derived cancer cell (PDC) lines: 156681-154-R-J1-PDC, 283228-195-R-J1-PDC, 287954-098-R-J1-PDC, 292921-168-R-J2-PDC, 349418-098-R-PDC, 425362-245-T-J1-PDC, 556581-035-R-J1-PDC, and BL0293-F563-PDC were received from the NCI Patient-Derived Models Repository (PDMR, https://pdmr.cancer.gov). The established cell lines HS-SY-2 (RRID:CVCL_8719), MPNST, and SYO-1 (RRID:CVCL_7146) were obtained from the Sloan Kettering Institute. The alveolar soft parts sarcoma cell line ASPS-1 (RRID:CVCL_S738) was established at the NCI and grown from internal seed stocks. The following established cell lines were purchased from the American Type Culture Collection (ATCC, Manassas, VA): G-401 (ATCC, cat. CRL-1441, RRID:CVCL_0270), SW982 (ATCC, cat. HTB-93, RRID:CVCL_1734), VA-ES-BJ (ATCC, cat. CRL-2138, RRID:CVCL_1785), NCI-H719 (ATCC, cat. CRL-5837, RRID:CVCL_1582), NCI-H196 (ATCC, cat. CRL-5823, RRID:CVCL_1509), NCI-H841 (ATCC, cat. CRL-5845, RRID:CVCL_1595), NCI-H1618 (ATCC, cat. CRL-5879, RRID:CVCL_1480), NCI-H1876 (ATCC, cat. CRL-5902, RRID:CVCL_1503), DMS 114 (ATCC, cat. CRL-2066; RRID:CVCL_1174), NCI-H211 (ATCC, cat. CRL-5824; RRID:CVCL_1529), and SW 1271 (ATCC, cat. CRL-2177, RRID:CVCL_1716). The small cell lung cancer cell line COR-L88 was purchased from Sigma-Aldrich (cat. 92031917-1VL, RRID:CVCL_1141). The non-small cell lung cancer cell lines NCI-H226 (RRID:CVCL_1544) and NCI-H322M (RRID:CVCL_1557) were established at the NCI and grown from internal seed stocks. Pooled donor human umbilical vein endothelial cells (HUVEC, Lonza, cat. CC-2519) and human mesenchymal stem cells (hMSC, Lonza, cat. PT-2501) were purchased from Lonza (Walkersville, MD).
Cell Culture. All cells were maintained in an incubator at 37 degrees C and 5% CO2 with 95% humidity. […]
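Note: spheroids exposed to compound for 7 days before viability readout.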
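Throughout, for viability, T/C: luminescent signal taken as surrogate of viable cell content; 100% = DMSO vehicle control viability and lower means growth inhibition.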

## [2H]c1nc(C)nc([2H])c1-c1cc(NC[C@@H](C)c2cccc3c(C(=O)NC)ccnc23)ncn1 + Cn1nnc2c(C(N)=O)ncn2c1=O
Second compound 1 µM
  IC50: > 10 µM
Second compound 3.16 µM
  IC50: > 10 µM
Second compound 10 µM
  IC50: > 10 µM
Second compound 31.6 µM
  IC50: > 10 µM
Second compound 100 µM
  IC50: > 10 µM
Second compound 1 µM, first compound 0.0316 µM
  viability, T/C: 104%
Second compound 1 µM, first compound 0.1 µM
  viability, T/C: 103%
Second compound 1 µM, first compound 0.316 µM
  viability, T/C: 106%
Second compound 1 µM, first compound 1 µM
  viability, T/C: 97.6%
Second compound 1 µM, first compound 3.16 µM
  viability, T/C: 99.5%
Second compound 1 µM, first compound 10 µM
  viability, T/C: 101%
Second compound 3.16 µM, first compound 0.0316 µM
  viability, T/C: 106%
Second compound 3.16 µM, first compound 0.1 µM
  viability, T/C: 93.9%
Second compound 3.16 µM, first compound 0.316 µM
  viability, T/C: 99.3%
Second compound 3.16 µM, first compound 1 µM
  viability, T/C: 106%
Second compound 3.16 µM, first compound 3.16 µM
  viability, T/C: 107%
Second compound 3.16 µM, first compound 10 µM
  viability, T/C: 99.3%
Second compound 10 µM, first compound 0.0316 µM
  viability, T/C: 101%
Second compound 10 µM, first compound 0.1 µM
  viability, T/C: 100%
Second compound 10 µM, first compound 0.316 µM
  viability, T/C: 99.7%
Second compound 10 µM, first compound 1 µM
  viability, T/C: 104%
Second compound 10 µM, first compound 3.16 µM
  viability, T/C: 103%
Second compound 10 µM, first compound 10 µM
  viability, T/C: 105%
Second compound 31.6 µM, first compound 0.0316 µM
  viability, T/C: 106%
Second compound 31.6 µM, first compound 0.1 µM
  viability, T/C: 103%
Second compound 31.6 µM, first compound 0.316 µM
  viability, T/C: 102%
Second compound 31.6 µM, first compound 1 µM
  viability, T/C: 103%
Second compound 31.6 µM, first compound 3.16 µM
  viability, T/C: 98.8%
Second compound 31.6 µM, first compound 10 µM
  viability, T/C: 106%
Second compound 100 µM, first compound 0.0316 µM
  viability, T/C: 99.7%
Second compound 100 µM, first compound 0.1 µM
  viability, T/C: 103%
Second compound 100 µM, first compound 0.316 µM
  viability, T/C: 97.7%
Second compound 100 µM, first compound 1 µM
  viability, T/C: 98.2%
Second compound 100 µM, first compound 3.16 µM
  viability, T/C: 97.6%
Second compound 100 µM, first compound 10 µM
  viability, T/C: 94.4%
